In patent US20050221381A1, “Method for isolating ligands” (priority 2002, published 2005):
“Also recorded” adds a separate entry of the source. Where two headings read alike, the source gives them in different places.

Experiments:
[1] = biological target: T1, soluble DRB1*0101 molecules (Homo sapiens, UniProt P01903+P01911, A100R/D57E/F55L/F60I/F76Y/I96L/L162R/M171V/P40L/Q125E/R42F/V115G/Y59C); test: Peptide binding assay, SDS-stability assay; set-up: key: −: no binding/T cell response; +/−: weak binding/T cell response; +: intermediate binding/T cell response; ++: strong binding/T cell response
T1 construct: Soluble HLA class I A*0201 and HLA class II DRA1*0101/DRB1*0101/Ii, DRA1*0101/DRB1*0401/Ii and DRA1*0101/DRB1*0404/Ii molecules were expressed in SC-2 cells; made in house; host or cells: SC-2 cells

[2] = biological target: T2, soluble DRB1*0401 molecules (DR4) (Homo sapiens, UniProt P01903+P01911, A100K/A169T/F76Y/I96L/K127E/L162R/M171V/N62H/P40V/Q125Y/R42H/S133A/S149N/S66Y/V115G/V209L/W38E); type: binding; set-up: key: −: no binding/T cell response; +/−: weak binding/T cell response; +: intermediate binding/T cell response; ++: strong binding/T cell response
T2 construct: Soluble HLA class I A*0201 and HLA class II DRA1*0101/DRB1*0101/Ii, DRA1*0101/DRB1*0401/Ii and DRA1*0101/DRB1*0404/Ii molecules were expressed in SC-2 cells; made in house; host or cells: SC-2 cells

[3] = biological target: T2, soluble DRB1*0401 molecules (DR4); type: binding; set-up: key to DR4 binding: +++: high binding affinity; ++: moderate binding affinity; +: low binding affinity; −: no binding; key to Binding to DRB1 *0401: −: no binding/T cell response; +/−: weak binding/T cell response; +: intermediate binding/T cell response; ++: strong binding/T cell response; settings: for Binding to soluble DRB1*0401 molecules (in words): SDS-stability assay
[4] = biological target: DRB1*0701 (Homo sapiens, UniProt P01903+P01911, A100R/A102G/A103Q/D57E/D86V/E43K/F76Y/K127E/L162R/M171V/P40G/Q125H/Q99D/R33Q/R42Y/R54Q/S133A/S66F/T210M/V115G/Y107V/Y59L/Y89S); test: Peptide-competition assay with biotinylated CLIP peptide (ELISA); type: binding; set-up: key: −: no binding/T cell response; +/−: weak binding/T cell response; +: intermediate binding/T cell response; ++: strong binding/T cell response
Protocol: (§1) The binding affinities to DRB1*0701 and DRB1*1101 were tested by a peptide-competition assay (Reay et al., 1992). Briefly, binding of the biotinylated CLIP peptide (reference peptide) has been used for monitoring of HLA:peptide complex formation. […] In the case of lower affinity peptides they should be added in excess to the reference peptide to compete for occupancy of HLA binding grove. […] Alternatively, comparing of the amount of reference peptide bound to HLA molecules in the presence or absence of competitor peptide one can determine the binding activity of the peptide of interest.
(§2) In the present peptide-competition assay conditions of peptide binding were similar to described above. Soluble HLA molecules were used in the concentration of 0.5 μM and biotinylated CLIP was added to all samples in the final concentration of 2 μM. Competitor peptides were added in three different concentrations: 0.25, 5 and 100 μM. Binding reaction was performed in PBS buffer (pH 7.4) for 18 hours at 37° C. […] Briefly, MaxiSorb 96-well plates (Nunc, Denmark) were coated with mouse anti-αβ antibody L243 (purified from ATCC HB-55) by overnight incubation with 50 μl of 10 μg/ml dilution in PBS at 4° C. Non-specific binding to the plastic was blocked by incubation with T-PBS containing 3% of BSA for 2 hours at 37° C. and binding reactions were then “captured” for 2 hours at room temperature. […] The optical density at 405 nm was measured on a microplate reader SUNRISE (Tecan).

[5] = biological target: DRB1*1101 (Homo sapiens, UniProt P01903+P01911, A100R/A169T/A87E/I96F/K41T/L162R/M171V/P40S/Q125H/Q178H/Q39Y/Q99D/R42S/S66Y/T262R/V115G/W38E); test: as above; type: binding; set-up: key: −: no binding/T cell response; +/−: weak binding/T cell response; +: intermediate binding/T cell response; ++: strong binding/T cell response; settings: for Binding to DRB1*1101: longer peptides no. 1500-1505, peptide-competition assay
Protocol: as §1, §2

[6] = biological target: T3, soluble DRB1*0404 molecules (Homo sapiens, UniProt P01903+P01911, A100R/A169T/F76Y/I96L/K127E/L162R/M171V/N62H/P40V/Q125Y/R42H/S133A/S149N/S66Y/V209L/W38E); test: Peptide binding assay, SDS-stability assay; set-up: key: −: no binding/T cell response; +/−: weak binding/T cell response; +: intermediate binding/T cell response; ++: strong binding/T cell response
T3 construct: Soluble HLA class I A*0201 and HLA class II DRA1*0101/DRB1*0101/Ii, DRA1*0101/DRB1*0401/Ii and DRA1*0101/DRB1*0404/Ii molecules were expressed in SC-2 cells; made in house; host or cells: SC-2 cells

[7] = system: HLA-DRB1*0401-transgenic mice splenocytes; type: in vivo, mouse; set-up: key to DRB1*0401 mice total SC (T cell response) / DRB1*0401 mice CD4+ (T cell response): −: no binding/T cell response; +/−: weak binding/T cell response; +: intermediate binding/T cell response; ++: strong binding/T cell response; settings: for Immunogenicity in DRB1*0401-transgenic mice (in words): INF-gamma ELISpot (FIG. 12)
[8] = biological target: T4, soluble DRB1*0401 molecules (Homo sapiens, UniProt P01903+P01911, A100K/A169T/F76Y/I96L/K127E/L162R/M171V/N62H/P40V/Q125Y/R42H/S133A/S149N/S66Y/V115G/V209L/W38E); test: Epitope capture from peptide mixtures, gel filtration and MALDI-TOF MS of bound peptides; type: binding
T4 construct: Soluble HLA class I A*0201 and HLA class II DRA1*0101/DRB1*0101/Ii, DRA1*0101/DRB1*0401/Ii and DRA1*0101/DRB1*0404/Ii molecules were expressed in SC-2 cells; made in house; host or cells: SC-2 cells
Source text: After peptide binding reaction with soluble HLA molecules, HLA-peptide complexes were separated from free peptides by gel-filtration chromatography on Superdex-200 column (AKTAdesign, Amersham Pharmacia Biotech). HLA-containing fractions were collected, and bound peptides were reconstituted from the complexes by adding TFA to the final concentration of 1%. Peptides were desolted by Ziptip purification and analyzed by MALDI-TOF mass-spectrometry.
Second, the ability to capture peptides binding to HLA class II molecules from the mixture of two high affinity ligands was tested. The binding reaction contained 1 μM of soluble DRB1*0401 molecules and 5 μM of each YAR and 1242 peptide. After the HLA-peptide complexes were formed, they were separated from the excess of free peptides by gel filtration chromatography. Fractions containing MHC molecules were collected. Bound peptides were eluted from the complexes and analyzed by mass-spectrometry.
Third, it was investigated if the binding capacity of the high affinity ligand would be influenced by the excess of low affinity peptide. […] Peptide binding was assessed by SDS-stability assay and verified by MS analysis (FIG. 3).
The final concentration of each peptide in binding reaction was 5 μM, except 1236 added in 55 μM, meaning that the concentration of each individual binding peptide was 20-fold lower than final concentration of all peptides. DRB1*0401 molecules were added to 1 μM. The formation of MHC-peptide complexes was evaluated as described above, using single peptides as controls (FIG. 4). […] The result of this analysis yielded the two peptides with highest binding affinities: 1242 and YAR (see Table 1). The peptides with moderate and/or low affinities were not found in the complexes, probably due to the high concentration of strong competitors used in this assay.

[9] = longer peptides no. 1500-1505, peptide-competition assay
[10] = CD4+ fraction of splenocytes, IFN-γ ELISpot
[11] = IFN-gamma ELISpot, enriched CD4+ fraction of splenocytes of HLA-DR4 transgenic mice vaccinated with the longer peptide, ex vivo re-stimulation
[12] = IFN-gamma ELISpot, total splenocytes of HLA-DR4 transgenic mice vaccinated with the longer peptide, ex vivo re-stimulation
[13] = total splenocytes, ex vivo restimulation, IFN-γ ELISpot

Sequence | Binding to DRB1*0101 ([1]; longer peptides no. 1500-1505) | Binding to DRB1*0101 ([1]; soluble DRB1*0101 molecules) | Binding to DRB1 *0701 ([4]; DRB1*0701) | Binding to DRB1 *0701 [4, 9] | Binding to DRB1 1101 [5] | Binding to DRB1*1101 [5] | Binding to DRB1*0404 ([6]; longer peptides no. 1500-1505) | Binding to DRB1*0404 ([6]; soluble DRB1*0404 molecules) | Binding to DRB1*0401 ([2]; longer peptides no. 1500-1505) | Binding to DRB1 *0401 ([3]; soluble DRB1*0401 molecules) | DRB1*0401 mice CD4+ (T cell response) [7, 10] | DRB1*0401 mice CD4+ (T cell response) [7, 11] | DRB1*0401 mice total SC (T cell response) [7, 12] | DRB1*0401 mice total SC (T cell response) [7, 13] | other results
LLQRGPQYSEHPTFTSQYRIQG [Peptide 1502] | − | − | − | − | ++ | ++ | − | − |  |  |  |  |  |  | Binding to DRB1*0401 [2]: +; Binding to DRB1 *0401 [3]: +; CD4+ / CD8+ response of separated splenocytes ([7]; mouse, in vivo): simultaneous CD4+ and CD8+ response; DRB1*0401 mice CD4+ (T cell response) ([7]; mouse, in vivo): ++; DRB1*0401 mice total SC (T cell response) ([7]; mouse, in vivo, sc): + and ++
PSLILVSQYTPDSTPCHRGDNQLQVQHTR [Peptide 1500] | + | + | − | − | − | − | ++ | ++ | ++ | ++ | + | + | + | + | 
QGQNLKYQEFFWDANDIYRIF [Peptide 1505] | − | − | − | − | − | − | − | − | +/− | + | ++ | ++ | ++ | ++ | Binding to soluble DRB1*0401 molecules (in words) [3]: not so good in binding assay; Immunogenicity in DRB1*0401-transgenic mice (in words) ([7]; total splenocytes): highest frequency of T cells
QWKEPDVYYTSAFVFPTKDVALR [Peptide 1501] | ++ | ++ | − | − | + | +/− | − | − | + | + | + | + | + | + | 
TSGVMTRGRLKAESTVAPEEDTDE [Peptide 1504] | + | + | − | − | + | + |  | ++ | + | + | ++ | ++ | + | + | 
YARFQSQTTLKQKT [reference compound] |  |  |  |  |  |  |  |  |  |  |  |  |  |  | DR4 binding [3]: +++; Peptides captured from pool of 10 peptides, MS analysis ([8]; each peptide 5 μM, 1236 55 μM, DRB1*0401 1 μM): captured by DR4 molecules; Peptides found in complexes with MHC molecules by MS ([8]; mixture of two ligands, 5 μM each, 1 μM DRB1*0401): revealed in the complexes with MHC molecules
YRHTWDRHDEGAAQGDDDVW [Peptide 1503] | − | − | − | − | − | − | − | − | +/− | +/− | − | − | − | − | Binding to soluble DRB1*0401 molecules (in words) [3]: weak affinity; Immunogenicity in DRB1*0401-transgenic mice (in words) ([7]; total splenocytes): did not induce immune response; also recorded: not immunogenic
